Target: GPX4
Type: biochemical
Conditions: covalent; without GCTR

Structure (SMILES): COC(=O)c1ccc([C@H]2c3[nH]c4ccccc4c3C[C@H](C(=O)OC)N2C(=O)CCl)cc1 [RSL3]
- IC50: 12.4 µM

Source: article PMC10963859 (Redox Biology, 2024)
